Test system: endocrine progenitors
Assay: Differentiation of iPSC-derived endocrine progenitors towards immature beta cells, marker expression with tested reagent combinations
Type: cell-based, human
Details: addition of the reagent during differentiation of endocrine progenitors into beta cells
Description: FIG. 31. Expression of DAPI, C-Peptide, Glucagon and NKX6.1 when testing various compounds at day 23.
FIG. 32. Measurement of DAPI, C-Peptide, Glucagon and NKX6.1 expression across tested compound combinations.
To further differentiate endocrine progenitors into beta cells, various reagents were tested to determine which combinations are most efficient in generating immature beta cells. T3 was selected for its role in beta cell survival, function, and identity Alk5 inhibitor II was selected for its specificity in inhibition of TGF beta receptor 1. XXI was selected as Notch inhibitor to exit cell cycle and as a driving force between endocrine vs duct phenotypes. Noggin is selected for BMP inhibition due to evidence that inhibition of this pathway is important for endocrine differentiation. Addition of notch inhibitor XXI reduced NKX6.1 levels and increased glucagon levels. […] The aforementioned growth factors can be used in combination for immature beta cell production. Thereafter, there is a need for a maturation step to induce glucose sensitivity on immature induced-islet cells

Compound | NKX6.1 levels | glucagon levels | c-peptide levels
C[C@H](NC(=O)Cc1cc(F)cc(F)c1)C(=O)N[C@H]1N=C(c2ccccc2)c2ccccc2N(C)C1=O [XXI] | reduced | increased | –
noggin | – | – | slightly increases

Source: patent publication US12161676B2, “Methods of use of islet cells” (CEDARS-SINAI MEDICAL CENTER, priority 2018, dated 2024)
